From PMC10492212 (Journal of Ayurveda and Integrative Medicine, 2023)
In brackets after ≈: the same amount, converted by molar mass.

Biological target: intestinal α-glucosidase
Test: sucrose hydrolysis, glucose oxidase-peroxidase, absorbance […] nm
Type: biochemical
Settings: phosphate buffer pH 7.5, 20 min pre-incubation at 37 °C

- IC50: 52.5 ± 2.67 µg/mL (≈ 81.3 µM)
SMILES: C[C@H]1O[C@H](O[C@H]2[C@H](O)[C@@H](O)[C@@H](O[C@H]3[C@H](O)[C@@H](O)C(O)O[C@@H]3CO)O[C@@H]2CO)[C@H](O)[C@@H](O)[C@@H]1N[C@H]1C=C(CO)[C@@H](O)[C@H](O)[C@H]1O (stereo partly shown) [acarbose]
